# Assay results reported in PMC10778758, “Dithioethanol (DTE)-Conjugated Deoxyribose Cyclic Dinucleotide Prodrugs (DTE-dCDNs) as STING Agonist” (International Journal of Molecular Sciences, 2023).
# “And” between values parts separate entries of the source, which are not always exact repeats. Equal values may be shown once.
# What was measured:
# [1] = system: THP-1 cells; test: Western blot of STING/TBK1/IRF3 phosphorylation in THP-1 cells; format: cell-based; settings: 4 h
# Protocol: Western blotting. THP-1 cells (8 × 10^5 cells/well) were seeded into a 6-well plate and treated with prodrug 9, 2′,3′-cGAMP, 3′,3′-c-di-dAMP, and ADU-S100 for 4 h. The total proteins from the cells were extracted via cold RIPA buffer supplemented with protease inhibitors. Cell lysates were harvested via 1 × SDS-PAGE sample loading buffer (Cat. code: P0015, Beyotime, Shanghai, China), boiled at 100 °C for 10 min. Cell lysates were run on 10% SDS-PAGE gels and transferred onto NC membranes. The membranes were blocked with 5% BSA for 1 h and incubated with primary antibodies against STING, phospho-STING (Ser366), TBK1, phospho-TBK1 (Ser172), IRF3, phospho-IRF3 (Ser386), or β-actin overnight at 4 °C. Horseradish peroxidase-conjugated secondary antibodies were used as secondary antibodies. Finally, the membrane was detected using enhanced chemiluminescence for imaging.
# Figure 9 Prodrug 9 activated the STING signalling pathway through stimulating the phosphorylation of STING, TBK1, and IRF3. Prodrug 9 (10 μM), 2′,3′-cGAMP (100 μM), 3′,3′-c-di-dAMP (100 μM), and ADU-S100 (10 μM) were used to treat THP-1 cells for 4 h, and the levels of total STING, phospho-STING, total TBK1, phospho-TBK1, total IRF3, phospho-IRF3, and β-actin were detected via Western blotting. The raw images of western blots were also placed in pages S16–S22 in Supplementary Materials.
# Figure S4. Relative quantification of phospho-STING, phospho-TBK1, phospho-IRF3. Prodrug 9 (10
# μM), 2′,3′-cGAMP (100 μM), 3′,3′-c-di-dAMP (100 μM) and ADU-S100 (10 μM) were used to treat
# THP-1 cells for 4 h, and the levels of total STING, phospho-STING, total TBK1, phospho-TBK1, total
# IRF3, phospho-IRF3, and β-actin were assessed by western blotting. […]
# [2] = Release of parent dCDN from prodrug 9 initiated by DTT or GSH (HPLC); format: in vitro ADME
# Protocol: To analyze the reduction dependency, we performed the in vitro cleavage test by incubating prodrug 9 with a reductive substance such as GSH or DTT and cell lysates at 37 °C and then determined the change with HPLC. […] As the reductive substance or cell lysates were added, the peak for prodrug 9 disappeared and the new peaks at 1.2 min appeared in 0.5 h and 2 h, respectively. The released parent dCDN was also confirmed with 3′,3′-c-di-dAMP through UPLC-MS (Figure S1).
# Amounts of 10 mM DTT or GSH were added into prodrug 9 (100 μM) in an air-bath incubator at 37 °C for 0.5 h. Afterwards, 10 μL of each mixture was injected into HPLC for analysis. The HPLC methodology was the same as above.
# Figure 3 Parent dCDNs release in GSH, DTT (a), and cell lysates (b). An amount of 100 μM prodrug 9 was added into the 10 mM GSH, 10 mM DTT, and cell lysates for various times (0.5 h and 2 h) at 37 °C and analyzed with HPLC (Agilent 1260, Santa Clara, CA, USA).
# [3] = system: THP1-Lucia cells; test: THP1-Lucia cell-based luciferase reporter assay
# Protocol: THP1-Lucia cell-based reporter assay. THP1-Lucia cells were seeded into a 24-well plate at a density of 5 × 10^4 cells/well. […] Finally, the medium was collected to determine the luciferase activity using QUANTI-Luc (InvivoGen, San Diego, CA, USA) according to the manufacturer′s instruction to calculate the EC50 values of the tested compounds. The results are expressed as the mean ± SD from three independent experiments. Emax values were normalized to the response induced by 2′,3′-cGAMP in each assay and expressed as a mean percentage ± SD from three independent experiments. The THP1-Lucia cell line was obtained from Prof. Junmin Quan from Peking University (Beijing, China).
# Figure 5 The luciferase-based assay in the THP1-Lucia reporter cell line. (a) EC50 values represent the mean (±SD) of three independent experiments. (b) Emax values represent the mean (±SD) of three independent experiments.
# [4] = system: THP-1 cells; test: RT-qPCR of cytokine mRNA levels in THP-1 cells; format: cell-based; settings: 4 h
# Protocol: Real-time quantitative PCR (RT-qPCR). The mRNA expression levels of diverse cytokines were measured using quantitative RT-PCR (RT-qPCR) assays. THP-1 cells or CT26 cells were incubated with the compounds for 4 h, subsequently harvested for RNA isolation according to the manufacturer’s instructions of RNApure Tissue&Cell Kit (DNase I) (CWBIO, Cambridge, MA, USA catalogue no. CW0560S). Next, 1 μg RNA was reversely transcribed to cDNA by TransScript All-in-One First-Strand cDNA Synthesis SuperMix for qPCR (One-Step gDNA Removal) (TransGen, Beijing, China). To examine the mRNA levels, real-time PCR was performed in a CFX96 Real-Time PCR system (Bio-RAD, Hercules, CA, USA) using PerfectStart Green qPCR Super Mix (TransGen) and primers (Sangon Biotech, Shanghai, China). The expression level was calculated according to the formula (2^−∆∆Ct) using the GAPDH or β-actin as the internal reference gene and the relative gene expression fold was normalized to the DMSO-treated cells. The THP-1 and CT26 cell lines were obtained from American Type Culture Collection (ATCC, Manassas, VA, USA).
# Figure 7 Prodrug 9 improved the production of the type I interferons and proinflammatory cytokines in THP-1 cells. The mRNA expression levels of IFN-β (a), CXCL10 (b), IL-6 (c), and TNF-α (d) were assessed via real-time quantitative PCR (qPCR) under the treatment of prodrug 9 (10 μM), 3′,3′-c-di-dAMP (100 μM), 2′,3′-cGAMP (100 μM), and ADU-S100 (10 μM) for 4 h.
# [5] = THP-1, prodrug 9 10 μM vs 2′,3′-cGAMP 100 μM
# [6] = THP-1, prodrug 9 10 μM vs 3′,3′-c-di-dAMP 100 μM
# [7] = THP-1, prodrug 9 10 μM vs ADU-S100 10 μM
smiles,measurement,setting,value
Nc1ncnc2c1ncn2C1CC2OP(=O)(OCCSSc3ccccn3)OCC3OC(n4cnc5c(N)ncnc54)CC3OP(=O)(OCCSSc3ccccn3)OCC2O1 (centres unmarked) [prodrug 9],"relative expression of phospho-IRF3, fold compared to 2′,3′-cGAMP",[1]; [5],19.8 fold
same,"relative expression of phospho-STING, fold compared to 2′,3′-cGAMP",[1]; [5],20.8 fold
same,"relative expression of phospho-TBK1, fold compared to 2′,3′-cGAMP",[1]; [5],6.9 fold
same,"relative expression of phospho-IRF3, fold compared to 3′,3′-c-di-dAMP",[1]; [6],6.5 fold
same,"relative expression of phospho-STING, fold compared to 3′,3′-c-di-dAMP",[1]; [6],5.5 fold
same,"relative expression of phospho-TBK1, fold compared to 3′,3′-c-di-dAMP",[1]; [6],3.6 fold
same,"relative expression of phospho-IRF3, fold compared to ADU-S100",[1]; [7],1.8 fold
same,"relative expression of phospho-STING, fold compared to ADU-S100",[1]; [7],1.6 fold
same,"relative expression of phospho-TBK1, fold compared to ADU-S100",[1]; [7],1.3 fold
same,time at which prodrug peak disappeared and parent dCDN peak appeared,"[2]; 100 μM prodrug, 10 mM GSH or DTT, 37 °C",0.5 h
same,time to decompose and release the parent dCDN,[2]; reductive substance GSH or DTT,30 min
same,"fold activity (EC50) vs 3′,3′-c-di-dAMP",[3],~43 fold
same,fold activity (EC50) vs ADU-S100,[3],~3.0 fold and 3 fold
same,"maximum activation fold (Emax) relative to 2′,3′-cGAMP",[3],approximately 1.8 fold
same,"maximum activation fold (Emax) relative to 3′,3′-c-di-dAMP",[3],~1.9 fold
same,maximum activation fold (Emax) relative to ADU-S100,[3],~1.4 fold
same,EC50,[3]; 24 h,0.96 µM
same,"CXCL10 mRNA expression, fold compared to 2′,3′-cGAMP",[4]; [5],~17 fold
same,"IFN-β mRNA expression, fold compared to 2′,3′-cGAMP",[4]; [5],approximately 40 fold
same,"IL-6 mRNA expression, fold compared to 2′,3′-cGAMP",[4]; [5],~1.2 fold
same,"TNF-α mRNA expression, fold compared to 2′,3′-cGAMP",[4]; [5],~46 fold
same,"CXCL10 mRNA expression, fold compared to 3′,3′-c-di-dAMP",[4]; [6],~26 fold
same,"IFN-β mRNA expression, fold compared to 3′,3′-c-di-dAMP",[4]; [6],approximately 43 fold
same,"IL-6 mRNA expression, fold compared to 3′,3′-c-di-dAMP",[4]; [6],~1.4 fold
same,"TNF-α mRNA expression, fold compared to 3′,3′-c-di-dAMP",[4]; [6],~12 fold
same,"CXCL10 mRNA expression, fold higher than ADU-S100",[4]; [7],14 fold
same,"IFN-β mRNA expression, fold higher than ADU-S100",[4]; [7],14 fold
same,"IL-6 mRNA expression, fold higher than ADU-S100",[4]; [7],1.9 fold
same,"TNF-α mRNA expression, fold higher than ADU-S100",[4]; [7],15 fold
